Results from patent publication US5451506A, “Oncostatin M and novel compositions having anti-neoplastic activity” (Oncogen Limited Partnership, priority 1993, dated 1995).

T1: Oncostatin M receptor on A375 or A549 cells (Homo sapiens, UniProt P40189+Q99650)
T1 construct: endogenous in cells; host or cells: A375 or A549 cells (intact monolayers)
T1 sequence (Q99650 28-979): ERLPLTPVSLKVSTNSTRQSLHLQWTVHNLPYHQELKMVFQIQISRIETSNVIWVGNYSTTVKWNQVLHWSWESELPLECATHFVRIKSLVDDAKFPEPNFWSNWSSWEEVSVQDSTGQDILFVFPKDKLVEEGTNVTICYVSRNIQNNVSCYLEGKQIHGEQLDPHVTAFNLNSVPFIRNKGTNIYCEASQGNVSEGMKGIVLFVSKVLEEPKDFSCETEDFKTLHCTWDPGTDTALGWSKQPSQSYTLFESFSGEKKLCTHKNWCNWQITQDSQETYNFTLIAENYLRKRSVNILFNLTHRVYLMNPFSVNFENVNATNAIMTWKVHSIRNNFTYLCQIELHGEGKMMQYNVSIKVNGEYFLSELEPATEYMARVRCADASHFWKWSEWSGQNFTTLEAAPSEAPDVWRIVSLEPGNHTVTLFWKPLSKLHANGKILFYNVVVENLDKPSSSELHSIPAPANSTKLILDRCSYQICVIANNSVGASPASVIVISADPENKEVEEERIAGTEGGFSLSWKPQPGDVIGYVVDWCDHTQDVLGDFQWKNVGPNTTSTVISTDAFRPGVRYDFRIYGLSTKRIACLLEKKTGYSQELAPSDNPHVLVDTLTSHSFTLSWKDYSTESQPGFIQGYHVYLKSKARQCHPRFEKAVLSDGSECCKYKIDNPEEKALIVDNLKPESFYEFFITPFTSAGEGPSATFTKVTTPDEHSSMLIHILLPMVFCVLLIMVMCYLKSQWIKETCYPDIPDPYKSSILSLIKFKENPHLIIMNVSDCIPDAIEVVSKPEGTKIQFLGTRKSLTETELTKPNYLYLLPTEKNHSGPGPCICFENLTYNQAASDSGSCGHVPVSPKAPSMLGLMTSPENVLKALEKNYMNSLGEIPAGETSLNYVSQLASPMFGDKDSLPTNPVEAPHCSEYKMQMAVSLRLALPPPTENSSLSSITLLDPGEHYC
T1 sequence (P40189 23-918): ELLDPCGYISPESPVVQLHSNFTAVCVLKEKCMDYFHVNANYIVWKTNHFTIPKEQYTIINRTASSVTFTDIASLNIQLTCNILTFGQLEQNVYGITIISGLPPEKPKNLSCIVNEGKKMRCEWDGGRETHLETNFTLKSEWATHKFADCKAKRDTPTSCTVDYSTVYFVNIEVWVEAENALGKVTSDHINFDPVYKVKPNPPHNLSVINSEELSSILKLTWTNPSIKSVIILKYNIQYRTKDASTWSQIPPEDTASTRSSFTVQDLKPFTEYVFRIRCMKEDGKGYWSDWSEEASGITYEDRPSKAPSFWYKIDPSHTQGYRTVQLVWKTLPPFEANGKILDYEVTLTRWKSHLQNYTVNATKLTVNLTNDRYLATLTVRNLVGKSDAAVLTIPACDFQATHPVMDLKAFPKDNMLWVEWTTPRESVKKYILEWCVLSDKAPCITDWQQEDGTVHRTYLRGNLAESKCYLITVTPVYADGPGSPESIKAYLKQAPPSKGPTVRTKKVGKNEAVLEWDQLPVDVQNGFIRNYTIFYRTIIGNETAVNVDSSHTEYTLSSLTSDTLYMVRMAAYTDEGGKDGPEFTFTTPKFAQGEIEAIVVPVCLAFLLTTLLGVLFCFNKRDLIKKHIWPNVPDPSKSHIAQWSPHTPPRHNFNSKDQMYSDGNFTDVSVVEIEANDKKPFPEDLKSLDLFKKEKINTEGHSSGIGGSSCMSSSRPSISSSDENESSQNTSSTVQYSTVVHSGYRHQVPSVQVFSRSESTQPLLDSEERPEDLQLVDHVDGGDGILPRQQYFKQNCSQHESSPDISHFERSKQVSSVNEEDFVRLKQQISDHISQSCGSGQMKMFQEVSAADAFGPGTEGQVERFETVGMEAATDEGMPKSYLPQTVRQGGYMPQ


Key:
[1] = test system: A375 melanoma cells; assay: Cell growth modulatory assay using 3H-thymidine incorporation into DNA (GIA); assay type: cell-based, human; set-up: Observed % Inhibition of 3H-TdR Incorporation: concentration or dose not given beside the values; settings: A375 Cells
Procedure: (§1) The assays were performed in 96 flat well plates (Costar 3596). Human melanoma cells (A375) (3×10^3 /100 μl) or cells from another cell line of interest were at an appropriate cell density used. Cells in 100 μl growth medium were placed in each well. Three hours later, 100 μl of test sample in growth medium was added to each well. Plates were incubated at 37° C. for 3 days. Then 25 μl (0.5 μCi) of a solution of ^3 H-thymidine (specific activity 27 μCi/μg) was added to each well for the final 6 hours of incubation. The cells were then transferred to glass filter strips using a multiwell harvester (PHD Cell Harvester, Cambridge Technology, Inc.). The filters were transferred to scintillation vials. Two ml of scintillation fluid (ScientiVerse II, Fisher Scientific Co.) was added and the samples counted in a scintillation counter to quantitate ^3 H-thymidine incorporation.

[2] = test system: MCF-7 breast tumor cells; assay: Inhibition of 3H-TdR incorporation, Oncostatin M and TNF-α; assay type: cell-based, human; settings: MCF-7 Cells
Procedure: as §1
Inhibition of ^3 H-TdR incorporation into A375 cells and MCF-7 cells were compared using the assay described in Example 1B, above. The cells were treated with either Oncostatin M alone, TNF-α (Amgen Biologicals, human recombinant TNF-α) alone, or with a combination of Oncostatin M and TNF-α.

[3] = biological target: T1, Oncostatin M receptor on A375 or A549 cells; assay: Specificity of Oncostatin M receptor: competition for binding of 125I-Oncostatin M; settings: competitor 20 μg/ml; 125I-Oncostatin M 30-50 ng/ml
Procedure: The cell line of interest was plated in 48-well plates at a density of 2×10^5 cells/well and maintained at 37° C. for 16-24 hours before initiation of the assay. Cell monolayers were then washed once with Binding buffer (Linsley et al., Biochemistry (1986) 25:2978-2986). To measure total binding, ^125 I-Oncostatin M was added at concentrations ranging from 0.5-100 ng/ml. To measure non-specific binding, unlabeled Oncostatin M was added simultaneously with the ^125 I-Oncostatin M to replicate plates at a concentration 20- to 100-fold higher than the concentration of ^125 I-Oncostatin M. Binding was allowed to proceed for 2-5 hours at 23°, then the monolayers were washed four times with Binding Buffer, cell-bound radioactivity was solubilized with 1N NaOH and was counted in a gamma counter. Specific binding was calculated by subtracting the non-specific binding from total binding. The dissociation constant (Kd) and binding capacity was determined by Scatchard analysis (Scatchard, Ann. N.Y. Acad. Sci. (1949) 51:660).
The specificity of the Oncostatin M receptor was determined by evaluating the ability of several other polypeptide growth factors to compete for binding of ^125 I-Oncostatin M (at 30-50 ng/ml) to A375 or A549 cells.

[4] = test system: WI26 fibroblasts; assay: Cell growth modulatory assay using 3H-thymidine incorporation into DNA (GIA); assay type: cell-based, human; settings: 1000 GIA units/ml
Procedure: as §1
Human tumor cells (A375 melanoma cells, A549 lung cancer cells, HBT10 neuroblastoma cells, and SK-MEL28 melanoma cells) were seeded at 3×10^3 cells/well and normal fibroblasts (WI26 cells and WI38 cells) at 1.5×10^3 cells/well in 96-well plates. Various concentrations of purified Oncostatin M, obtained from the fraction from the C18^3 column with peak antiproliferative activity against A375 cells were used. The assay was performed as described in Example 1B above.

[5] = test system: Mouse L929 cells; assay: Effect on mouse L929 cells; assay type: cell-based; settings: up to 1000 GIA units/ml
Procedure: (§2) The ability of PBL-derived Oncostatin M to affect replication of a variety of cells was also investigated. Mouse L929 cells were insenstive to PBL-derived Oncostatin M using up to 1000 GIA units/ml. Growth of human fibroblasts, WI26, was stimulated by treatment with 1000 GIA units/ml. Normal human T-lymphocyte proliferation at 72 hours post mitogenesis was not affected by up to 500 GIA units/ml.

[6] = test system: Normal human T-lymphocyte; assay: Normal human T-lymphocyte proliferation post mitogenesis; assay type: cell-based; settings: 72 hours post mitogenesis, up to 500 GIA units/ml
Procedure: as §2

Row | Molecule | Observed % Inhibition of 3H-TdR Incorporation [1] | Observed % Inhibition of 3H-TdR Incorporation [2] | Inhibitory activity towards binding of 125I-Oncostatin M [3] | Growth of human fibroblasts WI26 [4] | Replication of mouse L929 cells [5] | Normal human T-lymphocyte proliferation [6]
1 | TNF-α | 7% | 30% | None of these showed significant inhibitory activity |  |  | 
2 | PBL-derived Oncostatin M: Oncostatin M isolated from conditioned medium of activated human T-lymphoblasts, approximately 80% pure (protein, UniProt P13725 26-221, looked up) Oncostatin-M: AAIGSCSKEYRVLLGQLQKQTDLMQDTSRLLDPYIRIQGLDVPKLREHCRERPGAFPSEETLRGLGRRGFLQTLNATLGCVLHRLADLEQRLPKAQDLERSGLNIEDLEKLQMARPNILGLRNNIYCMAQLLDNSDTAEPTKAGRGASQPPTPTPASDAFQRKLEGCRFLHGYHRFMHSVGRVFSKWGESPNRSRR |  |  |  | stimulated | insenstive | not affected
